Values after ≈ are worked out from the molar mass of the structure shown. Read-outs that look alike come from different tables or passages of the source.
Assays:
P. aeruginosa biofilm = test: Biofilm growth assay with antibiotic disks (synergy); type: cell-based; settings: 0.125 µg/ml in the agar with colistin 10 µg disks
Method: INHIBITION OF THE GROWTH OF PREFORMED BIOFILMS. The Biofilm Growth Assay as described in Example VII was performed in round plates with the compounds of the invention in agar on half of the plate and antibiotic disks placed onto the agar containing the compounds of the invention.
The Biofilm Growth Assay was performed as described in Example VIII. 2 to 4 antibiotic disks were placed onto the agar containing a compound of the invention in a line parallel to the line that separates the two agars in one round plate. Appropriate negative and positive control plates were performed as known to those skilled in the art.

E. coli = test: Biofilm growth assay (spreading biofilm on semi-solid agar); type: cell-based; parameters: E. coli (n=10): unit: ug/mL; settings: for IC85: Escherichia coli; for E. coli (n=10): Table 6, inhibitory concentration in the biofilm growth assay, n = number of isolates tested
How it was run: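 Spreading (swarming) biofilm on semi-solid agar: E. coli on LB with 0.6% agar and 0.5% glucose; P. aeruginosa on M8 agar with 0.2% glucose, 100 µM CaCl2, 1 mM MgSO4, 0.5% Casamino acids. Compound in medium; 5 µL overnight culture spotted centrally, 37°C overnight. Value: concentration (µg/ml) giving ≥85% reduction in spread area versus negative control.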

Pseudomonas syringae = test: Biofilm growth assay, plant pathogens; type: cell-based; settings: 0.5% Noble agar, 30°C, approximately 24 to 48 hours
Xanthomonas campestris = test: Biofilm growth assay, plant pathogens; type: cell-based; settings: 0.5% Noble agar, 30°C, approximately 24 to 48 hours
[1] = test system: Pectobacterium atrosepticum; test: Biofilm growth assay, plant pathogens; type: cell-based; settings: 0.5% Noble agar, 30°C, approximately 24 to 48 hours
P. aeruginosa = test: Biofilm growth assay (spreading biofilm on semi-solid agar); type: cell-based; parameters: P. aeruginosa (n=10): unit not given here; settings: for IC85: Pseudomonas aeruginosa; for P. aeruginosa (n=10): Table 6, inhibitory concentration in the biofilm growth assay, n = number of isolates tested
[2] = Bioavailability in mice (serum level after oral or IP administration); type: in vivo; settings: orally or via IP injection at approximately 20 mg/kg to 50 mg/kg; 30 minutes or 1 hour after administration
Method: The bioavailabilities of certain compounds were examined in mice. Administration of the compounds was performed orally and by intraperitoneal (IP) injection using a vehicle as known to those skilled in the art. Many vehicles can be used to examine bioavailability. Prior to administration, each vehicle was optimized based on compound solubility according to the formulation research conducted by Uckun et al. (Arznelmittel-Forschung (Drug Research) 2007; 57(4):218-226). […] The concentration of PEG400 is modulated depending upon solubility of the compounds and the amount of aqueous phase added (0.02 M citrate and 0.9% NaCl).

Burkholderia cepacia = test: Biofilm growth assay, multiple isolates; type: cell-based; settings: Table 6; inhibitory concentration in the biofilm growth assay; n = number of isolates tested
Method: (§1) The biofilm growth assay was carried out to measure swarming or biofilm spreading on semi-solid agar media in round plates (for example, 100 × 15 mm), also referred to as Petri dishes. For E. coli, the plates contained LB medium with 0.6% agar and 0.5% glucose. P. aeruginosa plates were made with M8 agar supplemented with 0.2% glucose, 100 µM CaCl2, 1 mM MgSO4, and 0.5% Casamino acids. The agar plates of this assay consisted of 0.4% to 0.7% agar (Bacto or Noble agar), although other media may also be used as described in the literature and known to those skilled in the art. Test compounds at the desired concentration were added to the cooled, autoclaved media. Portions of the media were then poured into the plates (20 mL/plate), and the plates allowed to dry at room temperature for approximately 3 to 4 hours. Alternatively, however, plates may be dried in a laminar flow hood for approximately fifteen to twenty minutes. Overnight cultures were grown in a 37°C shaker in LB (E. coli) or TSB (P. aeruginosa). Plates were inoculated by placing 5 µL of the appropriate overnight culture in the centers of the plates. The plates then were incubated overnight at 37°C. The area of the zone of spreading bacteria was then measured and replicates are averaged. Percent inhibition was calculated as 100 × (area without compound - area with compound)/(area without compound). An active compound was considered that which reduces the area of the spreading biofilm compared to negative controls by greater than or equal to 85%. The values shown in Table 1 are the concentrations of compounds (µg/ml) tested in the biofilm growth assay that reduce the area of the spreading biofilm compared to negative controls by greater than or equal to 85% unless noted differently in Table 1. A > ("greater than" symbol) as used in Table 1 is well understood to those skilled in the art as an indication that the listed concentration was not effective at this concentration.
(§2) Table 6, below, lists the inhibitory concentrations of select compounds and antibiotics in the biofilm growth assay against various gram-negative bacterial biofilms. "N" means the number of isolates of bacteria tested. The biofilm growth assay procedure detailed in Example I, above, was followed. Burkholderia cepacia used media consisting of M9 salts, 100 µM CaCl2, 1 mM MgS04, and 0.7% citrate in 0.4% Noble agar. Salmonella spp. used media consisting of Nutrient Broth with 0.5% glucose in 0.5% Noble agar.

Salmonella spp. = test: Biofilm growth assay, multiple isolates; type: cell-based; settings: Table 6; inhibitory concentration in the biofilm growth assay; n = number of isolates tested
Method: as §1, §2

Evaluation of salts = type: physicochemical
Method: Evaluation of Compound 62 (Table 4) salt formation was performed. […] As stated herein, the invention also includes compounds and their salts. Evaluation of Compound 64 (Table 4) salt formation was performed. HCl (mono and bis), p-TSA (bis), BSA (bis), MSA (bis), H2SO4 (mono), and H3PO4 (mono) provided salts with crystallinity. […] As stated herein, the invention also includes compounds and their salts.

[3] = Table 2, concentration that reduces the area of the spreading biofilm by >= 85%
[4] = Table 4, concentration that reduces the area of the spreading biofilm by >= 85%, read-out: E. coli
[5] = Table 4, concentration that reduces the area of the spreading biofilm by >= 85%, read-out: P. aeruginosa

Structure (SMILES)	E. coli (n=10) (E. coli)	P. aeruginosa (n=10) (P. aeruginosa)	concentration in the serum of mice [2] [ng/mL]	inhibitory concentration (Burkholderia cepacia)	inhibitory concentration in biofilm growth assay (Salmonella spp.)	IC85 (E. coli; [4]) [µg/mL]	IC85 (P. aeruginosa; [5]) [µg/mL]	further results
CC1(C)CC[C@]2(C(=O)O)CC[C@]3(C)C(=CCC4[C@@]5(C)Cc6c(n[nH]c6N)C(C)(C)C5CC[C@]43C)C2C1 (stereo in doubt) [Compound 1, (4aS,6aS,6bR,13aR)-12-Amino-2,2,6a,6b,9,9,13a-heptamethyl-2,3,4,4a,5,6,6a,6b,7,8,8a,9,11,13,13a,13b,14,15b-octadecahydro-1H-chryseno[1,2-f]indazole-4a-carboxylic acid]	1	1	> 5000	0.25	1			combination with colistin at preventing the growth of P. aeruginosa biofilms (Figure 2) (P. aeruginosa biofilm): synergistic; IC85 (E. coli; Table 1, concentration that reduces the area of the spreading biofilm vs negative controls by >= 85%, > means not effective at this concentration, read-out: E. coli): 1 µg/mL (≈ 2.03 µM); E. coli (E. coli; [3]): 1 µg/mL; concentration found to inhibit the spreading biofilms (Pseudomonas syringae): 0.03 µg/mL; concentration found to inhibit the spreading biofilms (Xanthomonas campestris): 0.5 µg/mL; concentration found to inhibit the spreading biofilms [1]: 0.06 µg/mL; growth of the spreading P. aeruginosa biofilm (Figure 1) (P. aeruginosa; 0.5 µg/ml in the agar, overnight incubation at 37°C): prevented the growth of the spreading P. aeruginosa biofilm; optimal working concentration (P. aeruginosa; Figure 2 legend): 0.5 µg/mL; IC85 (P. aeruginosa; Table 1, concentration that reduces the area of the spreading biofilm vs negative controls by >= 85%, > means not effective at this concentration, read-out: P. aeruginosa): 0.5 µg/mL (≈ 1.01 µM); P. aeruginosa (P. aeruginosa; [3]): 0.5 µg/mL
CC1(C)CC[C@]2(C(=O)O)CC[C@]3(C)C(=C(c4cccnc4)CC4[C@@]5(C)Cc6c(n[nH]c6N)C(C)(C)[C@@H]5CC[C@]43C)[C@@H]2C1 (stereo partly drawn) [Compound 12, (4aS,6aS,6bR,8aR,13aR,15bS)-12-Amino-2,2,6a,6b,9,9,13a-heptamethyl-15-(pyridin-3-yl)-2,3,4,4a,5,6,6a,6b,7,8,8a,9,11,13,13a,13b,14,15b-octadecahydro-1H-chryseno[1,2-f]indazole-4a-carboxylic acid]			> 5000					IC85 (E. coli; Table 2, concentration that reduces the area of the spreading biofilm by >= 85%, read-out: E. coli): 1 µg/mL (≈ 1.75 µM); IC85 (P. aeruginosa; Table 2, concentration that reduces the area of the spreading biofilm by >= 85%, read-out: P. aeruginosa): 0.5 µg/mL (≈ 0.876 µM)
CC1(C)CC[C@]2(C(N)=O)CC[C@]3(C)C(=CCC4[C@@]5(C)Cc6c(n[nH]c6N)C(C)(C)C5CC[C@]43C)C2C1 (stereo partly drawn) [Compound 62, (4aS,6aS,6bR,13aR)-12-Amino-2,2,6a,6b,9,9,13a-heptamethyl-2,3,4,4a,5,6,6a,6b,7,8,8a,9,11,13,13a,13b,14,15b-octadecahydro-1H-chryseno[1,2-f]indazole-4a-carboxamide]						1 (≈ 2.03 µM)	1 (≈ 2.03 µM)	physical properties compared to freebase (Evaluation of salts; p-toluenesulfonic acid (mono) and H3PO4 (bis) salts): most desirable physical properties
CN(C)C[C@]12CCC(C)(C)CC1C1=CCC3[C@@]4(C)Cc5c(n[nH]c5N)C(C)(C)C4CC[C@@]3(C)[C@]1(C)CC2 (stereo partly drawn) [Compound 64, (4aS,6aS,6bR,13aR)-4a-((Dimethylamino)methyl)-2,2,6a,6b,9,9,13a-heptamethyl-2,3,4,4a,5,6,6a,6b,7,8,8a,9,11,13,13a,13b,14,15b-octadecahydro-1H-chryseno[1,2-f]indazol-12-amine]			> 5000			1 (≈ 1.97 µM)	0.5 (≈ 0.987 µM)	aqueous solubility compared to freebase (Evaluation of salts; Bis-MSA and mono-H3PO4 salts): increased aqueous solubility
CC1(C)CC[C@]2(c3cc(O)[nH]n3)CC[C@]3(C)C(=CCC4[C@@]5(C)Cc6c(n[nH]c6N)C(C)(C)C5CC[C@]43C)C2C1 (stereo partly drawn) [Compound 68, 3-((4aS,6aS,6bR,13aR)-12-Amino-2,2,6a,6b,9,9,13a-heptamethyl-2,3,4,4a,5,6,6a,6b,7,8,8a,9,11,13,13a,13b,14,15b-octadecahydro-1H-chryseno[1,2-f]indazol-4a-yl)-1H-pyrazol-5-ol]			> 5000					IC85 (E. coli; read-out: E. coli (µg/ml)): 0.5 µg/mL (≈ 0.94 µM); IC85 (P. aeruginosa; read-out: P. aeruginosa (µg/ml)): 0.5 µg/mL (≈ 0.94 µM)
NC[C@H]1O[C@H](O[C@H]2[C@H](O)[C@@H](O[C@H]3O[C@H](CO)[C@@H](O)[C@H](N)[C@H]3O)[C@H](N)C[C@@H]2N)[C@H](N)C[C@@H]1O [Tobramycin, tobramcyin, reference compound]	16	4		> 64	8			

Source: patent publication EP2712863B1, “Novel inhibitors of bacterial biofilms and related methods” (Sequoia Sciences, Inc., priority 2012, dated 2014)
